Changes are numbered by the printed parent chain. Like-named read-outs stand apart in the source and are kept apart here.

Test [1] addresses T1, IDH2 R140L (Homo sapiens, UniProt P48735, R140L).
T1 construct: expressed in transfected cells; host or cells: U-87 MG
T1 sequence (P48735 40-452 R140L): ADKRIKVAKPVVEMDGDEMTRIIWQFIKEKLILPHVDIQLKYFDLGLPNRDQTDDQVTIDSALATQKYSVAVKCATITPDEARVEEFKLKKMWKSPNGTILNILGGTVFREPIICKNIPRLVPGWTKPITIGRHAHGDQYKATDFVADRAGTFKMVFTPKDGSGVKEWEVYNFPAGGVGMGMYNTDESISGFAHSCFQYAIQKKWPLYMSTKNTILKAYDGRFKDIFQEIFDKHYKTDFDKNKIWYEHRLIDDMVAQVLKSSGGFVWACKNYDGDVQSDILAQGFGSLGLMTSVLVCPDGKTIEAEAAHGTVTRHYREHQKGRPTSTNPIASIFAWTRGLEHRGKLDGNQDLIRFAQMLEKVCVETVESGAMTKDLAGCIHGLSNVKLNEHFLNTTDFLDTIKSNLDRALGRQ
Put plainly: Inhibition of 2-HG production in IDH2 mutant U-87 MG cells. Type of test: cell-based. The note with it: 16 hours incubation, 50K cells/well, 100 μl media/well, read-out: Relative IC50 (nM) Mean, inhibition of 2-HG production. How it is done:
(§1) Compounds and Formulation. Compound A may be synthesized as described in WO/18/111707. Compound A is prepared as a 20 mM stock in 100% DMSO (dimethyl sulfoxide) (Sigma, D2438) and diluted serially in 100% DMSO to achieve the desired concentrations. DMSO preparations are further diluted with cell culture media prior to addition in the assay.
(§2) Cell lines. U-87 MG cells (ATCC, HTB-14) are cultured and assayed in MEM (Gibco, 11095) with 2 mM GlutaMAX (Gibco, 35050), 1 mM Pyruvate (Gibco, 11360), 0.1 mM NEAA ((Non-essential amino acid) Gibco, 11140) and 10% dialyzed FBS (Fetal bovine serum) (Gibco, 26400).
(§3) Cell-based inhibition assays. Cell-based assays are performed by measuring 2-HG in U-87 MG cells in which IDH2 mutations are expressed.
(§4) DNA constructs encoding IDH2 mutations are introduced into U-87 MG cells using transfection (Promega FuGENE HD, E2311) or lentiviral transduction, and the IDH2-mutant expressing cell lines are selected using blasticidin (5 μg/ml) or puromycin (1 μg/ml). Second site mutations (Q316E, I319M, P167R, and G260A) are evaluated in cis (same monomer as driver mutation within dimer) or in trans (opposite monomer from driver mutation in dimer). For compound treatments, 12,500 or 50,000 cells per well in culture medium (150 μl or 100 μl, respectively) are plated in 96 well cell culture plates (Falcon, 353377) 2 hrs prior to treatment. Cells are treated with serial dilutions of compound A in standard growth media. Plates are incubated in a mammalian cell culture incubator (humidified, 37° C., 5% CO2) for 16 or 72 hrs. Following the incubation period, the media is aspirated and cell extracts are prepared by addition of ice-cold 80% methanol/20% water (100 μL) containing liquid chromatography-mass spectrometry (LC-MS) internal standards (1 μM ^13C4 α-KG and ^13C5 2-HG) per well for ion pairing LC-MS method. 96-well sample plates are then sealed, shaken at 450 rpm for 10 min, and then placed at −20° C. and stored until LC-MS analysis.
(§5) LC-MS metabolite analysis of conditioned media and cell lysates. The effect of inhibitors on the concentrations of 2-HG are determined by LC-MS analysis of cell lysates using an ion-pairing method as described below.
(§6) Calibration curves are prepared by spiking 2-HG and α-KG into 80% methanol/20% water containing LC-MS internal standards (1 μM ^13C4 α-KG and 1 μM ^13C5 2-HG). The quantitation of 2-HG and α-KG is accomplished using an AB Sciex 6500 mass spectrometer with an Electrospray Ionization (ESI) probe and interfaced with an Ultra Performance Liquid Chromatography (UHPLC) system in the negative multiple-reaction monitoring (MRM) mode. The UHPLC system consists of an Agilent 1290 binary pump, thermostatted column compartment (TCC), and sampler. The injection volume is 1 μL for cell culture extracts. The extracts are chromatographically resolved using a Hypercarb column, 2.1×20 mm, […] Javelin HTS (Thermo Scientific, PN: 35005-022135). Mobile phase A is water/10 mM tributylamine/15 mM acetic acid. Mobile phase B is acetonitrile/20 mM tributylamine/30 mM acetic acid. The solvent flow rate is 1.0 mL/min. The isocratic condition is kept at 26% mobile phase B. The valve, sample loop, and needle are washed with 50% acetonitrile: 50% methanol for 20 seconds. The column temperature is kept at 55° C. Calibration curves are calculated by least-square linear regression with 1/x weighting. 2-HG and α-KG are quantified using standard curve and ratio of the peak area of analytes to internal standard. Data analysis is performed using MultiQuant 3.0 (AB Sciex). The raw data are exported to Microsoft Excel spreadsheets.
(§7) Determination of IC50 Curves. IC50 curves for each compound are obtained using four parameter data fitting analysis in GraphPad/Prism software.

Test [2] addresses T2, IDH2 R140Q_Q316E cis (Homo sapiens, UniProt P48735, Q316E/R140Q).
T2 construct: expressed in transfected cells; host or cells: U-87 MG
T2 sequence (P48735 40-452 R140Q/Q316E): T1 sequence (P48735 40-452 R140L) with L101Q, Q277E
The description is as above. The class given is cell-based. How it is done: as §1, §2, §3, §4, §5, §6, §7

Consider `C=CC(=O)N1CCN([C@@H](CC2CC2)c2ccc([C@H](C)Nc3ncc4c(n3)N(CC)C(=O)OC4)cc2)CC1` [Compound A, 7-[[(1S)-1-[4-[(1S)-2-cyclopropyl-1-(4-prop-2-enoylpiperazin-1-yl)ethyl]phenyl]ethyl]amino]-1-ethyl-4H-pyrimido[4,5-d][1,3]oxazin-2-one], for which the IC50 in test [1] is 243 nM; in test [2] (16 hours incubation, 50K cells/well, 100 μl media/well, read-out: Relative IC50 (nM) Mean, inhibition of 2-HG production), 16 nM; in test [2] (72 hours incubation, 12.5K cells/well, 150 μl media/well, read-out: IC50, inhibition of 2-HG production), 22 nM.

A word on the IC50: it is the concentration needed to halve the response being measured.

The values above are taken from patent US20240261294A1, “METHOD FOR TREATING IDH INHIBITOR-RESISTANT SUBJECTS” (Eli Lilly and Company, priority 2021, published 2024).
